Measurements reported in patent US8148367B2 (Takeda Pharmaceutical Company Limited, priority 2008, dated 2012).

Biological target: T1, Recombinant human renin (Homo sapiens, UniProt P00797)
T1 construct: isolate the active form (residues 67-406); made in house; host or cells: FreeStyle 293-F cells, transient expression of pcDNA3.1(+)/hREN
T1 sequence (P00797 67-406): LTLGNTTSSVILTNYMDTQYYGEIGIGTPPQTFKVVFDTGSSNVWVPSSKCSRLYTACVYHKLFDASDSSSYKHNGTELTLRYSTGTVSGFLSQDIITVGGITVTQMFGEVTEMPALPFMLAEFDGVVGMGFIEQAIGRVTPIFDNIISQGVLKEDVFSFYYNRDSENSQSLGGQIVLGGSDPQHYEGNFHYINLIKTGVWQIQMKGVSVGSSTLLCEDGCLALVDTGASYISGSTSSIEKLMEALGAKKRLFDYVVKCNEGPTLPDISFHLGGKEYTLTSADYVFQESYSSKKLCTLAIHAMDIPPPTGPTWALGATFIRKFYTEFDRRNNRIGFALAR
Experiment: In vitro enzymatic activity assay of renin inhibitors (fluorescence, QXL520/HiLyteFluo488 peptide substrate)
Type: biochemical
Settings: recombinant human renin 3 nM, 1 μM substrate, pre-incubated 10 minutes at 37° C., incubation one hour, pH 7.4, 5% DMSO; read-out: IC50 of Exemplified Compounds Against Renin

| IC50 [nM] | Compound |
| --- | --- |
| 100 to 500 | COCCOc1cccc(Cn2c(C(=O)N3CCNCC3)c(-c3ccccc3)n(-c3ccccc3C)c2=O)c1 [Example 186, 1-(3-(2-Methoxyethoxy)benzyl)-4-phenyl-5-(piperazine-1-carbonyl)-3-o-tolyl-1H-imidazol-2(3H)-one] |
| > 1000 | COCCOc1cccc(Cn2c(C(=O)N3CCNCC3)c(-c3ccccc3)n(-c3ccccc3OC)c2=O)c1 [Example 187, 1-(3-(2-Methoxyethoxy)benzyl)-3-(2-methoxyphenyl)-4-phenyl-5-(piperazine-1-carbonyl)-1H-imidazol-2(3H)-one] |
| 100 to 500 | COc1ccccc1-n1c(-c2ccccc2)c(C(=O)N2CCNCC2)n(Cc2cccc(OCCOc3ccccc3)c2)c1=O [Example 188, 1-(2-Methoxyphenyl)-3-(3-(2-phenoxyethoxy)benzyl)-5-phenyl-4-(piperazine-1-carbonyl)-1H-imidazol-2(3H)-one] |
| > 1000 | O=C(c1c(-c2ccccc2)n(-c2cccc(N3CCOCC3)c2)c(=O)n1CC1CCCCC1)N1CCNCC1 [Example 189, 1-(Cyclohexylmethyl)-3-(3-morpholinophenyl)-4-phenyl-5-(piperazine-1-carbonyl)-1H-imidazol-2(3H)-one] |
| 500 to 1000 | O=C(c1c(-c2ccccc2)n(-c2cccc(N3CCOCC3)c2)c(=O)n1Cc1ccc(F)c(F)c1)N1CCNCC1 [Example 190, 1-(3,4-Difluorobenzyl)-3-(3-morpholinophenyl)-4-phenyl-5-(piperazine-1-carbonyl)-1H-imidazol-2(3H)-one] |
| 100 to 500 | O=C(c1c(-c2ccccc2)n(-c2cccc(N3CCOCC3)c2)c(=O)n1Cc1cccc(OCCOc2ccccc2)c1)N1CCNCC1 [Example 191, 1-(3-Morpholinophenyl)-3-(3-(2-phenoxyethoxy)benzyl)-5-phenyl-4-(piperazine-1-carbonyl)-1H-imidazol-2(3H)-one] |
| > 1000 | COCCCOc1cccc(-n2c(-c3ccccc3)c(C(=O)N3CCNCC3)n(Cc3cccc(OCCOC)c3)c2=O)c1 [Example 192, 1-(3-(2-Methoxyethoxy)benzyl)-3-(3-(3-methoxypropoxy)phenyl)-4-phenyl-5-(piperazine-1-carbonyl)-1H-imidazol-2(3H)-one] |
| > 1000 | O=C(c1c(-c2ccccc2)n(-c2cccc(N3CCOCC3)c2)c(=O)n1CCCNS(=O)(=O)c1ccccc1F)N1CCNCC1 [Example 193, 2-Fluoro-N-(3-(3-(3-morpholinophenyl)-2-oxo-4-phenyl-5-(piperazine-1-carbonyl)-2,3-dihydro-1H-imidazol-1-yl)propyl)benzenesulfonamide] |
| < 100 | O=C(c1c(-c2ccccc2)n(-c2cccc(N3CCOCC3)c2)c(=O)n1CCCNS(=O)(=O)c1ccccc1Cl)N1CCNCC1 [Example 194, 2-Chloro-N-(3-(3-(3-morpholinophenyl)-2-oxo-4-phenyl-5-(piperazine-1-carbonyl)-2,3-dihydro-1H-imidazol-1-yl)propyl)benzenesulfonamide] |
| 500 to 1000 | O=C(c1c(-c2ccccc2)n(-c2cccc(N3CCOCC3)c2)c(=O)n1CCCNS(=O)(=O)c1cccc(Cl)c1)N1CCNCC1 [Example 195, 3-Chloro-N-(3-(3-(3-morpholinophenyl)-2-oxo-4-phenyl-5-(piperazine-1-carbonyl)-2,3-dihydro-1H-imidazol-1-yl)propyl)benzenesulfonamide] |
| > 1000 | CC(C)S(=O)(=O)NCCCn1c(C(=O)N2CCNCC2)c(-c2ccccc2)n(-c2cccc(N3CCOCC3)c2)c1=O [Example 196, N-(3-(3-(3-Morpholinophenyl)-2-oxo-4-phenyl-5-(piperazine-1-carbonyl)-2,3-dihydro-1H-imidazol-1-yl)propyl)propane-2-sulfonamide] |
| > 1000 | Cc1ccccc1S(=O)(=O)NCCCn1c(C(=O)N2CCNCC2)c(-c2ccccc2)n(-c2cccc(N3CCOCC3)c2)c1=O [Example 197, 2-Methyl-N-(3-(3-(3-morpholinophenyl)-2-oxo-4-phenyl-5-(piperazine-1-carbonyl)-2,3-dihydro-1H-imidazol-1-yl)propyl)benzenesulfonamide] |
| 100 to 500 | COc1cccc(S(=O)(=O)NCCCn2c(C(=O)N3CCNCC3)c(-c3ccccc3)n(-c3cccc(N4CCOCC4)c3)c2=O)c1 [Example 198, 3-Methoxy-N-(3-(3-(3-morpholinophenyl)-2-oxo-4-phenyl-5-(piperazine-1-carbonyl)-2,3-dihydro-1H-imidazol-1-yl)propyl)benzenesulfonamide] |
| 500 to 1000 | COc1ccc(S(=O)(=O)NCCCn2c(C(=O)N3CCNCC3)c(-c3ccccc3)n(-c3cccc(N4CCOCC4)c3)c2=O)cc1 [Example 199, 4-Methoxy-N-(3-(3-(3-morpholinophenyl)-2-oxo-4-phenyl-5-(piperazine-1-carbonyl)-2,3-dihydro-1H-imidazol-1-yl)propyl)benzenesulfonamide] |
| 500 to 1000 | O=C(NCCCn1c(C(=O)N2CCNCC2)c(-c2ccccc2)n(-c2cccc(N3CCOCC3)c2)c1=O)Nc1ccccc1 [Example 200, 1-(3-(3-(3-Morpholinophenyl)-2-oxo-4-phenyl-5-(piperazine-1-carbonyl)-2,3-dihydro-1H-imidazol-1-yl)propyl)-3-phenylurea] |
| 500 to 1000 | O=C(c1c(-c2ccccc2)n(-c2cccc(N3CCOCC3)c2)c(=O)n1CCCNS(=O)(=O)c1ccc(Cl)cc1)N1CCNCC1 [Example 202, 4-Chloro-N-(3-(3-(3-morpholinophenyl)-2-oxo-4-phenyl-5-(piperazine-1-carbonyl)-2,3-dihydro-1H-imidazol-1-yl)propyl)benzenesulfonamide] |
| 500 to 1000 | Cc1ccccc1-n1c(-c2ccccc2)c(C(=O)N2CCNCC2)n(CCNS(=O)(=O)c2ccccc2F)c1=O [Example 203, 2-Fluoro-N-(2-(2-oxo-4-phenyl-5-(piperazine-1-carbonyl)-3-o-tolyl-2,3-dihydro-1H-imidazol-1-yl)ethyl)benzenesulfonamide] |
| 500 to 1000 | Cc1ccccc1-n1c(-c2ccccc2)c(C(=O)N2CCNCC2)n(CCNS(=O)(=O)c2ccccc2Cl)c1=O [Example 204, 2-Chloro-N-(2-(2-oxo-4-phenyl-5-(piperazine-1-carbonyl)-3-o-tolyl-2,3-dihydro-1H-imidazol-1-yl)ethyl)benzenesulfonamide] |
| > 1000 | Cc1ccccc1-n1c(-c2ccccc2)c(C(=O)N2CCNCC2)n(CCNS(=O)(=O)c2cccc(Cl)c2)c1=O [Example 205, 3-Chloro-N-(2-(2-oxo-4-phenyl-5-(piperazine-1-carbonyl)-3-o-tolyl-2,3-dihydro-1H-imidazol-1-yl)ethyl)benzenesulfonamide] |
| 500 to 1000 | Cc1ccccc1-n1c(-c2ccccc2)c(C(=O)N2CCNCC2)n(CCNS(=O)(=O)C(C)C)c1=O [Example 206, N-(2-(2-Oxo-4-phenyl-5-(piperazine-1-carbonyl)-3-o-tolyl-2,3-dihydro-1H-imidazol-1-yl)ethyl)propane-2-sulfonamide] |
| > 1000 | Cc1ccccc1-n1c(-c2ccccc2)c(C(=O)N2CCNCC2)n(CCNS(=O)(=O)c2ccc(Cl)cc2)c1=O [Example 207, 4-Chloro-N-(2-(2-oxo-4-phenyl-5-(piperazine-1-carbonyl)-3-o-tolyl-2,3-dihydro-1H-imidazol-1-yl)ethyl)benzenesulfonamide] |
| 500 to 1000 | Cc1ccccc1-n1c(-c2ccccc2)c(C(=O)N2CCNCC2)n(CCNS(=O)(=O)c2ccccc2C)c1=O [Example 208, 2-Methyl-N-(2-(2-oxo-4-phenyl-5-(piperazine-1-carbonyl)-3-o-tolyl-2,3-dihydro-1H-imidazol-1-yl)ethyl)benzenesulfonamide] |
| > 1000 | COc1cccc(S(=O)(=O)NCCn2c(C(=O)N3CCNCC3)c(-c3ccccc3)n(-c3ccccc3C)c2=O)c1 [Example 209, 3-Methoxy-N-(2-(2-oxo-4-phenyl-5-(piperazine-1-carbonyl)-3-o-tolyl-2,3-dihydro-1H-imidazol-1-yl)ethyl)benzenesulfonamide] |
| > 1000 | COc1ccc(S(=O)(=O)NCCn2c(C(=O)N3CCNCC3)c(-c3ccccc3)n(-c3ccccc3C)c2=O)cc1 [Example 210, 4-Methoxy-N-(2-(2-oxo-4-phenyl-5-(piperazine-1-carbonyl)-3-o-tolyl-2,3-dihydro-1H-imidazol-1-yl)ethyl)benzenesulfonamide] |
| 100 to 500 | Cc1ccccc1-n1c(-c2ccccc2)c(C(=O)N2CCNCC2)n(CCNC(=O)Nc2ccccc2)c1=O [Example 211, 1-(2-(2-Oxo-4-phenyl-5-(piperazine-1-carbonyl)-3-o-tolyl-2,3-dihydro-1H-imidazol-1-yl)ethyl)-3-phenylurea] |
| 500 to 1000 | Cc1ccccc1-n1c(-c2ccccc2)c(C(=O)N2CCNCC2)n(CCNC(=O)Nc2ccccc2Cl)c1=O [Example 212, 1-(2-Chlorophenyl)-3-(2-(2-oxo-4-phenyl-5-(piperazine-1-carbonyl)-3-o-tolyl-2,3-dihydro-1H-imidazol-1-yl)ethyl)urea] |
| 100 to 500 | Cc1ccccc1-n1c(-c2ccccc2)c(C(=O)N2CCNCC2)n(CCNC(=O)Nc2ccc(Cl)cc2)c1=O [Example 213, 1-(4-Chlorophenyl)-3-(2-(2-oxo-4-phenyl-5-(piperazine-1-carbonyl)-3-o-tolyl-2,3-dihydro-1H-imidazol-1-yl)ethyl)urea] |
| 500 to 1000 | COc1ccccc1NC(=O)NCCn1c(C(=O)N2CCNCC2)c(-c2ccccc2)n(-c2ccccc2C)c1=O [Example 214, 1-(2-Methoxyphenyl)-3-(2-(2-oxo-4-phenyl-5-(piperazine-1-carbonyl)-3-o-tolyl-2,3-dihydro-1H-imidazol-1-yl)ethyl)urea] |
